In publication PMC12980303, “Development of a novel risk score reflecting the relative harm potential of synthetic cannabinoids based on prevalence estimates, well‐documented intoxication cases and basic pharmacological data” (Addiction (Abingdon, England), 2025):
pEC50: −log10 of the molar value. Where two headings read alike, the source gives them in different places. Marks after values point to notes of the source that are not given here.

Experiments:
hCB1 receptor [1] = target: T1, hCB1 receptor (Homo sapiens, UniProt P21554); test: functional [35S]GTPγS hCB1 activation assay; format: biochemical
Method: Receptor assays were performed on three different days and each concentration was tested in duplicate.

[2] = risk score from prevalence in routine forensic samples and intoxication cases (G1, PSS, TSS); design: species or system human
From the text: Therefore, higher values indicate substances with a higher risk. […] To take into account the severity of symptoms and the contribution of the specific NPS, two further summands were introduced. The first is based on the PSS, the second on the TSS. Again, higher values were associated with more severe symptoms and a stronger role of the NPS in causing the symptoms.
The risk score is composed of three components (parts G1, G2 and G3) and was designed as follows: (1) Gx=G1x+G2x+G3x,
Equation 2 takes into consideration several components: the number of intoxications with SCRA x in quarter k over the total number of intoxications of all investigated SCRAs in the same quarter; the number of serum/blood samples positive for SCRA x over the total number of serum/blood samples positive for all SCRAs plus the number of urine samples positive for SCRA x over the total number of urine samples positive for all SCRAs (this is divided by two to account for the two different sample types); and the number of quarters in which the SCRA x was prevalent. (2) G1x=∑k=1gak/bk/ck/dk+ek/fk/2/h+i
Consequently, equation 2 was mathematically rearranged. To further simplify the equation and reduce the formula signs, in equation 3 the following simplifications were taken: a/b=ai , c/d=as and e/f=au .
The sum of these quotients was divided by the number of all prevalent quarters (q p ). Prevalent quarters were defined as quarters in which on average the substance was detected in more than 5% of the positive serum and urine samples. If a poisoning occurred in a quarter in which the substance was not prevalent, the number of these quarters was added (q i ). This part of the score has similarities with an OR [42]. If the proportion of routine samples in a given quarter in which an intoxication with the respective substance occurred was zero (a s + a u = 0), a value of 0.01 was used for that quarter in the calculation of the quotient to avoid division by zero.
(§1) For part G2, the severity of the intoxication caused by the respective SCRA x was assessed on the basis of reported symptoms and follow‐up information using the PSS [20]. The PSS classifies the intoxication severity into five levels: (0) no, (1) mild, (2) moderate, (3) severe, and (4) fatal intoxication. […] For this purpose, the mean value of the PSS of all intoxications with the respective SCRA x was calculated ( G2x) .
(§2) For part G3, the involvement of the SCRA in the respective intoxications was assessed. This was evaluated on the basis of the TSS [21]. Elliott et al. developed the TSS to assess and classify the contribution of NPS in fatalities. In the present study, the TSS was determined to weigh the involvement of the investigated SCRA in the intoxication and the contribution of the SCRA to the observed symptoms. To determine the TSS value, factors such as the determined concentration of the SCRA, the presence of other recreational drugs or medicinal drugs, the general health of the patient and the consumption circumstances need to be considered. […] In cases with more than one drug detected, a TSS of 3 was only assigned where other compounds were present at concentrations below the range in which relevant effects are to be expected.
For the risk score, the mean value of the TSS of all intoxications with substance x was calculated ( G3x) . Analogous to the value of G2x , the value of G3x can theoretically be between 1 and 3. With a value of ‘1’, substance x was not mainly responsible for the symptoms in all of the intoxications (low level of significance), and with a value of ‘3’, it was the main cause in every poisoning in which it was detected.

[3] = occurrence of SCRAs in intoxication samples of the prospective study; design: species or system human; details: 2013 to 2021
From the text: For this study, the 10 SCRAs (AB‐[…], ADB‐[…], AB‐FUBINACA, FUB‐AMB, Cumyl‐PEGACLONE, MDMB‐4en‐PINACA, MDMB‐CHMICA, 5F‐MDMB‐PICA, 5F‐ADB and 5F‐PB‐22) which were most frequently detected in intoxications in a prospective observational study during the time period of 2013 to 2021 were selected (see Table 1). Additionally, JWH‐210, a model compound representative of the early SCRAs, along with two substances prevalent in screenings during years 2019/2020 (5F‐Cumyl‐PEGACLONE and 4F‐MDMB‐BICA), were included in this study (see Tables S2–S7). […] JWH‐018 was also included as a reference compound because of its historical use in this capacity. Including both reference compounds facilitates direct comparison with previously published data, thereby enhancing the relevance and interpretability of the results obtained in the present study. Information on the origin of the test and reference compounds and all chemicals used in this study can be found in Table S1.
The data on intoxication cases used for the development of this risk score were obtained from a prospective study. This study included patients who were treated in an emergency department room following the consumption of an NPS. Clinical symptoms and follow‐up information were documented using a structured questionnaire completed by the attending physicians. The methodology has been previously published. Residual serum (obtained from venous blood) and urine samples, accompanied by the completed questionnaires, were sent to the Poisons Information Center Freiburg for further analysis. The toxicological analyses of serum and urine samples were conducted at the Institute of Forensic Medicine Freiburg. No data was available on previous consumption patterns or potential development of tolerance after continued misuse. The study was conducted in accordance with the Declaration of Helsinki and approved by the regional ethics committee of the University of Freiburg (no. 235/13_130683). The intoxication cases included in this study are those in which SCRA use was confirmed by liquid chromatography tandem mass spectrometry (LC–MS/MS).

[4] = clinical symptoms, PSS and TSS assessment of individual intoxication cases; format: in vivo, human; design: key to PSS: 0: no; 1: mild; 2: moderate; 3: severe; 4: fatal intoxication
Method: Forty‐eight cases were included in the present study.
The PSS was determined based on the described symptoms.
as §1, §2

hCB1 receptor [5] = target: T1, hCB1 receptor; details: ref Wouters et al. [29], cited from earlier work

T1 sequence (P21554 whole entry): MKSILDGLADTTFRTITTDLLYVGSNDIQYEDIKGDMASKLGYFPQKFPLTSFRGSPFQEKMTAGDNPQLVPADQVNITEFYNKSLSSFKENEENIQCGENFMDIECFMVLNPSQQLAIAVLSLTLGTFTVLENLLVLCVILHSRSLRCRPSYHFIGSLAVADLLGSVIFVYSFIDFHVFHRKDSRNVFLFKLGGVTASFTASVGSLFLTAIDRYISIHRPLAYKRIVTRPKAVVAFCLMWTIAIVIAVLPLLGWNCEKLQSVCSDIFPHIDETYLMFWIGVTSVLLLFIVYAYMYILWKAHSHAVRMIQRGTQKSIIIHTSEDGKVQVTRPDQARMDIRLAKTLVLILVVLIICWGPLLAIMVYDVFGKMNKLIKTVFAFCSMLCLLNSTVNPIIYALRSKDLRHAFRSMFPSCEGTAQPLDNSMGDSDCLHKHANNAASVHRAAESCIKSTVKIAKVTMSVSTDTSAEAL

CC(C)C(NC(=O)c1nn(CC2CCCCC2)c2ccccc12)C(N)=O (stereo not drawn)
pEC50 (hCB1 receptor [1]): 8.29 | Emax (hCB1 receptor [1]; read-out: [35S]‐GTPγS assay Emax [%] (95% CI)): 124% | G total (risk score) ([2]; G1+G2+G3, higher value = greater toxicological risk): 7.2 | G2 ([2]; mean Poison Severity Score (PSS) of all intoxications with the SCRA): 2.1 | G3 ([2]; mean Toxicological Significance Score (TSS) of all intoxications with the SCRA): 2.3 | G1 ([2]; proportion in intoxication cases relative to prevalence in routine serum/blood and urine samples per quarter, 2013–2021, >1 over‐represented in intoxications): 2.8 | No. of intoxications ([3]; 139 intoxication samples of the prospective study): 33 | Percentage in % ([3]; proportion of 139 intoxications in which the substance was detected): 24% | PSS ([4]; intoxication case A): 3 | Recorded symptoms ([4]; intoxication case A, 3‐MMC also present): severe bradycardia (35 bpm/minutes) | Recorded symptoms ([4]; intoxication case A, 3‐MMC also present, listed as AB-CHMINACA): bradycardia (35 bpm/min), seizure, hypokalaemia | PSS ([4]; intoxication case B): 2 | Recorded symptoms ([4]; intoxication case B, four other SCRAs at very low concentrations): disorientation and miosis | EC50 (hCB1 receptor [5]; read-out: βarr2 assay EC50 [nM] (95% CI)): 3.45 nM | βarr2 assay Emax [%] (95% CI) (hCB1 receptor [5]; relative to CP‐55940, originally normalised to JWH‐018, corrected with factor 0.3268): 1195 ^a (1097–1331) %
